Key:
Assay type in all cases: cell-based
[1] = test system: Escherichia coli ATCC 25922; test: First screening, agar dilution MIC
Protocol: (§1) Clinical bacterial isolates from human samples collected in Lille (France) and some collection strains were used. The first screening step on pathogenic bacteria was carried out with crude hydro-alcoholic extracts of different hop parts (Table 1). The second screening was performed using sub-extracts of cones on Gram-positive bacteria, including methicillin-sensitive Staphylococcus aureus (MSSA) and methicillin-resistant Staphylococcus aureus […] (Table 2). These tests were carried out on Petri dishes, Mueller-Hinton Agar (MHA) (Oxoid, UK) was mixed with the plant extract solution in MeOH at 5% (solvent control: 5% MeOH). Final extract concentrations in Petri dishes ranged from 1250 to 4.9 µg/mL. A multi-headed inoculator allowed spotting bacterial strains at 10^5 CFU/mL in cysteinated Ringer (CR) solution (Merck®, France). Minimal Inhibitory Concentrations (MICs) were visually determined after 24 h of incubation at 37 °C.

Proteus mirabilis 11060 = test: First screening, agar dilution MIC
Protocol: as §1

[2] = test system: Enterobacter cloacae 11051; test: First screening, agar dilution MIC
Protocol: as §1

Corynebacterium T25-17 [3] = test: First screening, agar dilution MIC
Protocol: as §1

[4] = test system: Staphylococcus lugdunensis T26A3; test: First screening, agar dilution MIC
Protocol: as §1

Salmonella sp. 11033 = test: First screening, agar dilution MIC
Protocol: as §1

[5] = test system: Serratia marcescens 11057; test: First screening, agar dilution MIC
Protocol: as §1

[6] = test system: Streptococcus agalactiae T25-7; test: First screening, agar dilution MIC
Protocol: as §1

[7] = test system: Citrobacter freundii 11042; test: First screening, agar dilution MIC
Protocol: as §1

[8] = test system: Staphylococcus warneri T12A12; test: First screening, agar dilution MIC
Protocol: as §1

[9] = test system: Mycobacterium smegmatis 5003; test: First screening, agar dilution MIC
Protocol: as §1

Escherichia coli 8157 = test: First screening, agar dilution MIC
Protocol: as §1

Escherichia coli 8138 = test: First screening, agar dilution MIC
Protocol: as §1

[10] = test system: Klebsiella pneumoniae 11016; test: First screening, agar dilution MIC
Protocol: as §1

[11] = test system: Streptococcus agalactiae T53C2; test: First screening, agar dilution MIC
Protocol: as §1

[12] = test system: Enterobacter cloacae 11050; test: First screening, agar dilution MIC
Protocol: as §1

[13] = test system: Klebsiella pneumoniae 11017; test: First screening, agar dilution MIC
Protocol: as §1

[14] = test system: Citrobacter freundii 11041; test: First screening, agar dilution MIC
Protocol: as §1

[15] = test system: Staphylococcus epidermidis 10282; test: First screening, agar dilution MIC
Protocol: as §1

[16] = test system: Acinetobacter baumannii 9011; test: First screening, agar dilution MIC
Protocol: as §1

[17] = test system: Serratia marcescens 11056; test: First screening, agar dilution MIC
Protocol: as §1

[18] = test system: Acinetobacter baumannii 9010; test: First screening, agar dilution MIC
Protocol: as §1

[19] = test system: Staphylococcus aureus 8147; test: First screening, agar dilution MIC
Protocol: as §1

[20] = test system: Providencia stuartii 11038; test: First screening, agar dilution MIC
Protocol: as §1

[21] = test system: Staphylococcus epidermidis 5001; test: First screening, agar dilution MIC
Protocol: as §1

[22] = test system: Streptococcus dysgalactiae T46C14; test: First screening, agar dilution MIC
Protocol: as §1

[23] = test system: Stenotrophomonas maltophilia; test: First screening, agar dilution MIC
Protocol: as §1

Enterococcus sp. 8153 = test: First screening, agar dilution MIC
Protocol: as §1

[24] = test system: Enterococcus faecalis C159-6; test: First screening, agar dilution MIC
Protocol: as §1

[25] = test system: Pseudomonas aeruginosa 8131; test: First screening, agar dilution MIC
Protocol: as §1

[26] = test system: Pseudomonas aeruginosa ATCC 27583; test: First screening, agar dilution MIC
Protocol: as §1

[27] = test system: Staphylococcus aureus 8146; test: First screening, agar dilution MIC
Protocol: as §1

[28] = test system: Enterobacter cloacae 11053; test: First screening, agar dilution MIC
Protocol: as §1

[29] = test system: Staphylococcus aureus T36B1; test: Second screening, agar dilution MIC
Protocol: as §1

[30] = test system: Staphylococcus pettenkoferi T3.3; test: Second screening, agar dilution MIC
Protocol: as §1

Corynebacterium T25-17 [31] = test: Second screening, agar dilution MIC; details: Table 2
Protocol: as §1

[32] = test system: Streptococcus agalactiae T40A2; test: Second screening, agar dilution MIC
Protocol: as §1

[33] = test system: Staphylococcus lugdunensis T26A3; test: Second screening, agar dilution MIC; details: Table 2
Protocol: as §1

[34] = test system: Enterococcus faecalis T37A4; test: Second screening, agar dilution MIC
Protocol: as §1

[35] = test system: Staphylococcus saprophyticus 08237; test: Second screening, agar dilution MIC
Protocol: as §1

[36] = test system: Streptococcus agalactiae T38.2; test: Second screening, agar dilution MIC
Protocol: as §1

[37] = test system: Enterococcus faecalis T26-B7; test: Second screening, agar dilution MIC
Protocol: as §1

[38] = test system: Staphylococcus aureus T26A4; test: Second screening, agar dilution MIC
Protocol: as §1

[39] = test system: Staphylococcus aureus T28.1; test: Second screening, agar dilution MIC
Protocol: as §1

[40] = test system: Staphylococcus aureus T25.3; test: Second screening, agar dilution MIC
Protocol: as §1

[41] = test system: Enterococcus faecalis T34-2; test: Second screening, agar dilution MIC
Protocol: as §1

[42] = test system: Enterococcus faecalis T39-C11; test: Second screening, agar dilution MIC
Protocol: as §1

[43] = test system: Staphylococcus aureus T25.9; test: Second screening, agar dilution MIC
Protocol: as §1

[44] = test system: Streptococcus agalactiae 13225; test: Second screening, agar dilution MIC
Protocol: as §1

[45] = test system: Staphylococcus aureus CIP 224; test: Second screening, agar dilution MIC
Protocol: as §1

[46] = test system: Staphylococcus aureus T1.1; test: Second screening, agar dilution MIC
Protocol: as §1

[47] = test system: Streptococcus agalactiae T25.7; test: Second screening, agar dilution MIC
Protocol: as §1

[48] = test system: Streptococcus agalactiae 13226; test: Second screening, agar dilution MIC
Protocol: as §1

[49] = test system: Staphylococcus aureus 8147; test: Second screening, agar dilution MIC; details: Table 2
Protocol: as §1

[50] = test system: Staphylococcus epidermidis 5001; test: Second screening, agar dilution MIC; details: Table 2
Protocol: as §1

[51] = test system: Staphylococcus aureus T6.7; test: Second screening, agar dilution MIC
Protocol: as §1

[52] = test system: Staphylococcus aureus T25.10; test: Second screening, agar dilution MIC
Protocol: as §1

[53] = test system: Staphylococcus aureus T47A12; test: Second screening, agar dilution MIC
Protocol: as §1

In the case of CC1(C)S[C@@H]2[C@H](NC(=O)[C@H](N)c3ccc(O)cc3)C(=O)N2[C@H]1C(=O)O [AMX, Amoxicillin], the “Susceptibility to AMX” value [1] is reported as “I”, the “Susceptibility to AMX” value (Proteus mirabilis 11060) is reported as “R (R > 16)” and the “Susceptibility to AMX” value [2] is reported as “R (R > 16)”. The “Susceptibility to AMX” value (Corynebacterium T25-17 [3]) was “S (Amoxicillin (AMX) S ≤ 4)”, the “Susceptibility to AMX” value [4] was “S (Amoxicillin (AMX) S ≤ 4)” and the “Susceptibility to AMX” value (Salmonella sp. 11033) was “R (R > 16)”. For the same compound, the “Susceptibility to AMX” value [5] was “R (R > 16)”, the “Susceptibility to AMX” value [6] was “S (Amoxicillin (AMX) S ≤ 4)” and the “Susceptibility to AMX” value [7] was “R (R > 16)”. The “Susceptibility to AMX” value [8] was “S (Amoxicillin (AMX) S ≤ 4)”, the “Susceptibility to AMX” value [9] was “S (Amoxicillin (AMX) S ≤ 4)” and the “Susceptibility to AMX” value (Escherichia coli 8157) was “R (R > 16)”. For the same compound, the “Susceptibility to AMX” value (Escherichia coli 8138) was “R (R > 16)”, the “Susceptibility to AMX” value [10] was “R (R > 16)” and the “Susceptibility to AMX” value [11] was “S (Amoxicillin (AMX) S ≤ 4)”. For the same compound, the “Susceptibility to AMX” value [12] was “R (R > 16)”, the “Susceptibility to AMX” value [13] was “R (R > 16)” and the “Susceptibility to AMX” value [14] was “S (Amoxicillin (AMX) S ≤ 4)”. The “Susceptibility to AMX” value [15] was “S (Amoxicillin (AMX) S ≤ 4)”, the “Susceptibility to AMX” value [16] was “R (R > 16)” and the “Susceptibility to AMX” value [17] was “R (R > 16)”. For the same compound, the “Susceptibility to AMX” value [18] was “R (R > 16)”, the “Susceptibility to AMX” value [19] was “S (Amoxicillin (AMX) S ≤ 4)” and the “Susceptibility to AMX” value [20] was “S (Amoxicillin (AMX) S ≤ 4)”. For the same compound, the “Susceptibility to AMX” value [21] was “S (Amoxicillin (AMX) S ≤ 4)”, the “Susceptibility to AMX” value [22] was “S (Amoxicillin (AMX) S ≤ 4)” and the “Susceptibility to AMX” value [23] was “R (R > 16)”. The “Susceptibility to AMX” value (Enterococcus sp. 8153) was “S (Amoxicillin (AMX) S ≤ 4)”, the “Susceptibility to AMX” value [24] was “R (R > 16)” and the “Susceptibility to AMX” value [25] was “R (R > 16)”. For the same compound, the “Susceptibility to AMX” value [26] was “R (R > 16)”, the “Susceptibility to AMX” value [27] was “I” and the “Susceptibility to AMX” value [28] was “R (R > 16)”. The “Susceptibility to AMX” value [29] was “R (R > 16)”, the “Susceptibility to AMX” value [30] was “S (Amoxicillin (AMX) S ≤ 4)” and the “Susceptibility to AMX” value (Corynebacterium T25-17 [31]) was “S (Amoxicillin (AMX) S ≤ 4)”. The “Susceptibility to AMX” value [32] was “S (Amoxicillin (AMX) S ≤ 4)”, the “Susceptibility to AMX” value [33] was “S (Amoxicillin (AMX) S ≤ 4)” and the “Susceptibility to AMX” value [34] was “S (Amoxicillin (AMX) S ≤ 4)”. For the same compound, the “Susceptibility to AMX” value [35] was “S (Amoxicillin (AMX) S ≤ 4)”, the “Susceptibility to AMX” value [36] was “S (Amoxicillin (AMX) S ≤ 4)” and the “Susceptibility to AMX” value [37] was “S (Amoxicillin (AMX) S ≤ 4)”. The “Susceptibility to AMX” value [38] was “S (Amoxicillin (AMX) S ≤ 4)”, the “Susceptibility to AMX” value [39] was “R (R > 16)” and the “Susceptibility to AMX” value [40] was “R (R > 16)”. The “Susceptibility to AMX” value [41] was “S (Amoxicillin (AMX) S ≤ 4)”, the “Susceptibility to AMX” value [42] was “S (Amoxicillin (AMX) S ≤ 4)” and the “Susceptibility to AMX” value [43] was “R (R > 16)”. The “Susceptibility to AMX” value [44] was “S (Amoxicillin (AMX) S ≤ 4)”, the “Susceptibility to AMX” value [45] was “S (Amoxicillin (AMX) S ≤ 4)” and the “Susceptibility to AMX” value [46] was “S (Amoxicillin (AMX) S ≤ 4)”. For the same compound, the “Susceptibility to AMX” value [47] was “S (Amoxicillin (AMX) S ≤ 4)”, the “Susceptibility to AMX” value [48] was “S (Amoxicillin (AMX) S ≤ 4)” and the “Susceptibility to AMX” value [49] was “S (Amoxicillin (AMX) S ≤ 4)”. For the same compound, the “Susceptibility to AMX” value [50] was “S (Amoxicillin (AMX) S ≤ 4)”, the “Susceptibility to AMX” value [51] was “R (R > 16)” and the “Susceptibility to AMX” value [52] was “R (R > 16)”. For the same compound, the “Susceptibility to AMX” value [53] was “R (R > 16)”.

From publication PMC6472001, “Phenolic Compounds from Humulus lupulus as Natural Antimicrobial Products: New Weapons in the Fight against Methicillin Resistant Staphylococcus aureus, Leishmania mexicana and Trypanosoma brucei Strains” (Molecules, 2019)
